Laboratory results as given in patent US20200045983A1, “PROMOTER FOR LEGUMINOUS PLANT GROWTH” (KAO CORPORATION, priority 2017, published 2020).

Columns and labels:
[1] = system: soybean (Glycine max); assay: Effect of soyasaponin Bb on soybean growth, in combination with root nodule bacterium material (Example 2); type: in vivo; conditions: for foliar age among the three plots / plant height among the three plots / above-ground part fresh weight vs only the root nodule bacterium material / root nodule weight vs only the root nodule bacterium material / number of lateral buds / increase in the number of root nodules vs only the root nodule bacterium material: 1 mL of 20 μM solution, 24 days; for above-ground part fresh weight vs only the root nodule bacterium material: no significant change; for root nodule weight vs only the root nodule bacterium material: no significant difference; for number of lateral buds: rarely seen in non-application plot; for increase in the number of root nodules vs only the root nodule bacterium material: significant only for genistein
Method: Each Leonard jar filled with culture soil (Takii water-containing cell culture soil TM-1, Takii & Co., Ltd.) was irrigated with 100 mL of tap water. Then, a root nodule bacterium material (“Dr Mametaro®” (Idemitsu Kosan Co., Ltd.) was distributed at a thickness on the order of 5 mm onto the culture soil in the jar using a spatula. Two seeds of soybean (cultivar “Ryokuheki”, Kaneko Seeds Co., Ltd.) were sown by burying at a depth of approximately 1 cm from the culture soil surface. 1 mL of a solution of 20 μM soyasaponin Bb (soyasaponin I, ChromaDex, Inc.) dissolved in 50 mM TAPS buffer (pH 7.7) was added dropwise onto the culture soil covering the seeds using a micropipette. The soyasaponin Bb concentration in the culture soil was approximately 0.3 ppm. Only 1 mL of 50 mM TAPS buffer as a negative control and 1 mL of 20 μM genistein (Gen) solution as a positive control of root nodule formation promotion were applied in the same way as above (for the root nodule formation-promoting effect of genistein, see: Plant and Soil, 1997, 192: 141-151; and Secretions and Exudates in Biological Systems 27-48, Signaling and Communication in Plants 12, Springer-Verlag Berlin Heidelberg, 2012).
Plant cultivation was performed under the same conditions as in Example 1. 24 days after the sowing, growth indexes (foliar age, plant height, the number of lateral buds, above-ground part fresh weight, underground part fresh weight, the number of root nodules, and root nodule fresh weight) were measured. Each growth index was obtained as to each test plot by determining a mean of two plant individuals in each jar, and subsequently calculating a mean of four jars (n=4). The Tukey-Kramer method was used to test the significant difference among the plots.

[2] = system: soybean (Glycine max); assay: Effect of saponin formulation and iron phosphate in combination on soybean yield (Example 10); type: in vivo; conditions: 50 mg saponin formulation and/or 0.75 mg iron(III) phosphate tetrahydrate per pot, irrigation, 86 days
Method: “Ryokuheki” (Kaneko Seeds Co., Ltd.) was used as soybean seeds. Each Wagner pot of 1/5,000 a was filled with approximately 4 L of culture soil (Takii water-containing cell culture soil, intermedium-acting fertilizer effect type:expanded vermiculite=1:1 (volume ratio)), and three seeds were sown at a depth of approximately 1 cm from the culture soil surface. 50 mg of a saponin formulation (“soybean saponin 80”; AccessOne Co., Ltd.), 0.75 mg of iron(III) phosphate tetrahydrate (Junsei Chemical Co., Ltd.), and a mixture thereof were each suspended in 100 mL of tap water, and the culture soil surface was irrigated with each suspension (“saponin plot”, “iron phosphate plot” and “combination plot”, respectively; both the concentrations of the saponin formulation of the combination plot and the saponin plot in the culture soil were approximately 12.5 ppm and corresponded to approximately 6.1 ppm in terms of the concentration of group B soyasaponin calculated from quantification results (Table 7) in Production Example 1). […] 86 days after the sowing, pods (the pods include grains; the same holds true for the description below) were harvested, and a pod fresh weight per plant (pot) and a pod fresh weight per pod (average weight per pod) were measured (n=7 only for the combination plot, and n=8 for the other plots). […]

[3] = system: soybean (Glycine max); assay: Effect of soyasaponin Bb on soybean growth in culture soil (Example 1); type: in vivo; conditions: approx. 0.3 ppm in culture soil, 24 days after sowing
Method: Each Leonard jar (Soil Science and Plant Nutrition, 1983, 29: 97-100) filled with approximately 65 g of culture soil (Takii water-containing cell culture soil TM-1, Takii & Co., Ltd.) was irrigated with 100 mL of tap water. Then, two seeds of soybean (cultivar “Ryokuheki”, Kaneko Seeds Co., Ltd.) were sown by burying at a depth of approximately 1 cm from the culture soil surface. 1 mL of a solution of 20 μM soyasaponin Bb (soyasaponin I, ChromaDex, Inc.) dissolved in 50 mM TAPS buffer (pH 7.7) was added dropwise onto the culture soil covering the seeds using a micropipette. The soyasaponin Bb concentration in the culture soil was approximately 0.3 ppm (ppm by mass; the same holds true for the description below). 50 mM TAPS buffer (pH 7.7) was applied as a control (soyasaponin Bb non-application plot) in the same way as above.
Plant cultivation was performed in a plant growth chamber (LPH-350SP, Nippon Medical & Chemical Instruments Co., Ltd.). The light conditions were set to 16-hour light (light intensity: 130 μmol/m^2/s)/8-hour dark. The temperature was set to 26° C. for light and 20° C. for dark, and the humidity was set to 50%. Water supply was performed appropriately (approximately once per 7 to 10 days) by the addition of tap water in an appropriate amount to the lower part of the jar. 24 days after the sowing, growth indexes (foliar age, plant height, the number of lateral buds, above-ground part fresh weight, and underground part fresh weight) were measured. Each growth index was obtained as to each of the soyasaponin Bb non-application plot (control) and the soyasaponin Bb application plot by determining a mean of two plant individuals in each jar, and subsequently calculating a mean of four jars (n=4). The Student's t test was used to test the significant difference between the soyasaponin Bb application plot and the non-application plot.

[4] = system: lettuce (Lactuca sativa); conditions: Non Patent Literatures 7 to 10; cited from earlier work

Compound: O=c1c(-c2ccc(O)cc2)coc2cc(O)cc(O)c12 [genistein, reference compound]
- foliar age among the three plots [1]: did not differ significantly
- plant height among the three plots [1]: did not differ significantly
- above-ground part fresh weight vs only the root nodule bacterium material [1]: tendency toward increase
- root nodule weight vs only the root nodule bacterium material [1]: tendency toward increase
- number of lateral buds [1]: on average one per individual
- increase in the number of root nodules vs only the root nodule bacterium material [1]: approximately 1.7 times

Compound: O.O.O.O.O=P([O-])([O-])[O-].[Fe+3] [iron phosphate, iron(III) phosphate tetrahydrate]
- increase in pod fresh weight per pod with respect to the non-application plot ([2]; significant (5% or less)): approximately 10%
- increase in pod fresh weight per plant with respect to the non-application plot ([2]; significant only for combination): approximately 10%

Compound: C[C@@H]1O[C@@H](O[C@H]2[C@H](O[C@H]3[C@H](O[C@H]4CC[C@@]5(C)[C@@H](CC[C@]6(C)[C@@H]5CC=C5[C@@H]7CC(C)(C)C[C@@H](O)[C@]7(C)CC[C@]56C)[C@@]4(C)CO)O[C@H](C(=O)O)[C@@H](O)[C@@H]3O)O[C@H](CO)[C@H](O)[C@@H]2O)[C@H](O)[C@H](O)[C@H]1O [soyasaponin Bb]
- foliar age vs non-application plot [3]: did not differ significantly
- plant height vs non-application plot [3]: did not differ significantly
- increase in the number of lateral buds with respect to the non-application plot ([3]; statistically significant): approximately 2.7 times
- increase in underground part fresh weight with respect to the non-application plot ([3]; statistically significant): approximately 2.2 times
- increase in above-ground part fresh weight with respect to the non-application plot ([3]; tendency, no significant difference): approximately 1.1 times
- lettuce radicle elongation [4]: relatively weak or was not seen
- increase in underground part fresh weight with respect to only the root nodule bacterium material ([1]; 1 mL of 20 μM solution (approx. 0.3 ppm in culture soil), 24 days after sowing, statistically significant): approximately 1.5 times
- foliar age among the three plots [1]: did not differ significantly
- plant height among the three plots [1]: did not differ significantly
- above-ground part fresh weight vs only the root nodule bacterium material [1]: tendency toward increase
- root nodule weight vs only the root nodule bacterium material [1]: tendency toward increase
- number of lateral buds [1]: on average one per individual
- increase in the number of root nodules vs only the root nodule bacterium material [1]: approximately 1.3 times

Compound: CC1=C(O)C(=O)C[C@H](O[C@@H]2CC(C)(C)C[C@H]3C4=CC[C@@H]5[C@@]6(C)CC[C@H](O[C@@H]7O[C@H](C(=O)O)[C@@H](O)[C@H](O)[C@H]7O[C@@H]7O[C@H](CO)[C@H](O)[C@H](O)[C@H]7O[C@@H]7O[C@@H](C)[C@H](O)[C@@H](O)[C@H]7O)[C@](C)(CO)[C@@H]6CC[C@@]5(C)[C@]4(C)CC[C@@]23C)O1 [soyasaponin βg, reference compound]
- lettuce radicle elongation [4]: promoted
